The NIST ThermoML archive (doi:10.1016/j.jct.2016.10.031)

Test: molar heat capacity at constant pressure
Conditions: 101.33 kPa, Small (less than 1 g) adiabatic calorimetry

CC(C)(C)c1ccc(Oc2ccc([N+](=O)[O-])cc2)cc1 [1-(tert-butyl)-4-(4-nitrophenoxy)benzene]
Conditions	molar heat capacity at constant pressure [J/K/mol]
147.54 K, Crystal	187.32
148.06 K, Glass	190.82
148.34 K, Crystal	188.16
148.86 K, Glass	191.65
149.14 K, Crystal	188.9
149.66 K, Glass	192.65
149.94 K, Crystal	189.82
150 K, Crystal	189.82
150.46 K, Glass	193.56
150.74 K, Crystal	190.57
151.26 K, Glass	194.31
151.54 K, Crystal	191.48
152.06 K, Glass	195.14
152.35 K, Crystal	192.31
152.86 K, Glass	195.97
153.15 K, Crystal	193.23
153.66 K, Glass	196.89
153.95 K, Crystal	194.14
154.46 K, Glass	197.88
154.75 K, Crystal	194.81
155.26 K, Glass	198.63
155.55 K, Crystal	195.89
156.06 K, Glass	199.63
156.35 K, Crystal	196.72
156.86 K, Glass	200.38
157.15 K, Crystal	197.47
157.66 K, Glass	201.21
157.95 K, Crystal	198.13
158.46 K, Glass	201.96
158.75 K, Crystal	199.21
159.26 K, Glass	202.87
159.55 K, Crystal	200.21
160 K, Crystal	200.63
160.06 K, Glass	203.79
160.35 K, Crystal	201.13
160.85 K, Glass	204.7
161.15 K, Crystal	202.12
161.95 K, Crystal	202.71
162.45 K, Glass	206.7
162.75 K, Crystal	203.62
163.25 K, Glass	207.28
163.55 K, Crystal	204.37
164.04 K, Glass	208.36
164.35 K, Crystal	205.62
164.84 K, Glass	209.11
165.15 K, Crystal	206.53
165.64 K, Glass	209.94
165.95 K, Crystal	207.36
166.44 K, Glass	210.52
166.75 K, Crystal	208.11
167.23 K, Glass	211.35
167.55 K, Crystal	209.11
168.03 K, Glass	212.35
168.34 K, Crystal	210.11
168.81 K, Glass	213.35
169.14 K, Crystal	210.44
169.61 K, Glass	214.18
169.94 K, Crystal	211.44
170 K, Crystal	211.44
170.41 K, Glass	214.93
170.73 K, Crystal	212.93
171.2 K, Glass	216.18
171.53 K, Crystal	213.1
172 K, Glass	217.01
172.33 K, Crystal	214.01
172.79 K, Glass	217.67
173.12 K, Crystal	214.76
173.59 K, Glass	218.42
173.92 K, Crystal	215.68
174.38 K, Glass	219.58
174.72 K, Crystal	216.59
175.18 K, Glass	220.25
175.51 K, Crystal	218.01
175.97 K, Glass	221.25
176.31 K, Crystal	218.34
176.77 K, Glass	221.83
